The record followed here is patent publication US10370379B2, “Compounds and compositions useful for treating disorders related to NTRK” (BLUEPRINT MEDICINES CORPORATION, priority 2015, dated 2019).

Like-named read-outs stand apart in the source and are kept apart here.

Test [1] has as its target wild type NTRK1 enzyme (Homo sapiens (Human), UniProt P04629). Kind of test: NTRK1 Wild Type Assay at 1 mM ATP. The test is classed as biochemical. On the procedure:
NTRK1 Wild Type Assay at 1 mM ATP
The reaction was stopped by the addition of 70 μL of Stop buffer (100 mM HEPES pH 7.5, 0.015% Brij 35, 35 mM EDTA and 0.2% of Coating Reagent 3 (Caliper Lifesciences)). The plate was then read on a Caliper EZReader 2 (protocol settings: −1.7 psi, upstream voltage −500, downstream voltage −3000, post sample sip 35 s).

The test system of test [2] is KM12 Cliff (G595R) cell line. Kind of test: NTRK G595R mutant cellular assay (KM12 Cliff, CellTiter-Glo). The test is classed as cell-based. To be noted: for IC50: Homo sapiens, KM12 Cliff (G595R) cells, 72 hr, CellTiter-Glo. How it is done: (§1) NTRK Wild Type and G595R Mutant Cellular Assays Protocol
(§2) KM12 wild type colon carcinoma cell line harboring the TPM3-NTRK1 fusion protein was obtained from the National Cancer Institute (NCI). This line has been previously shown to be dependent upon the NTRK activity derived from the NTRK fusion protein for growth and survival. […] Cells were first plated in 384-well plates at 1000 cells/well in complete media (10% FBS and 1% pen/strep) and incubated overnight at 37° C. Cells were then dosed with test articles at varying concentrations using the Bravo liquid handling system. […] Each compound was run in duplicate per plate. […] 72 hr after dosing, assay plates were developed using CellTiter-Glo (Promega) and resultant luminescence was read on the Envision plate reader. IC50 determinations were calculated using a 4-parameter curve fitting algorithm
(In general: ATP-based viability assays read luminescence as a measure of living cells.)

In test [3] the test system is KM12 wild type colon carcinoma cell line harboring the TPM3-NTRK1 fusion protein. The test can be described thus: NTRK wild type cellular assay (KM12, CellTiter-Glo). The test is classed as cell-based. To be noted: for IC50: KM12 wild type cells, 72 hr, CellTiter-Glo; for GI50: NTRK wt cellular, known NTRK inhibitors. How it is done: as §1, §2
The mark [4] stands for this setting: wild type NTRK1, 1 mM ATP, read-out: NTRK1 IC50.

Chain of wild type NTRK1 enzyme (P04629 33-796): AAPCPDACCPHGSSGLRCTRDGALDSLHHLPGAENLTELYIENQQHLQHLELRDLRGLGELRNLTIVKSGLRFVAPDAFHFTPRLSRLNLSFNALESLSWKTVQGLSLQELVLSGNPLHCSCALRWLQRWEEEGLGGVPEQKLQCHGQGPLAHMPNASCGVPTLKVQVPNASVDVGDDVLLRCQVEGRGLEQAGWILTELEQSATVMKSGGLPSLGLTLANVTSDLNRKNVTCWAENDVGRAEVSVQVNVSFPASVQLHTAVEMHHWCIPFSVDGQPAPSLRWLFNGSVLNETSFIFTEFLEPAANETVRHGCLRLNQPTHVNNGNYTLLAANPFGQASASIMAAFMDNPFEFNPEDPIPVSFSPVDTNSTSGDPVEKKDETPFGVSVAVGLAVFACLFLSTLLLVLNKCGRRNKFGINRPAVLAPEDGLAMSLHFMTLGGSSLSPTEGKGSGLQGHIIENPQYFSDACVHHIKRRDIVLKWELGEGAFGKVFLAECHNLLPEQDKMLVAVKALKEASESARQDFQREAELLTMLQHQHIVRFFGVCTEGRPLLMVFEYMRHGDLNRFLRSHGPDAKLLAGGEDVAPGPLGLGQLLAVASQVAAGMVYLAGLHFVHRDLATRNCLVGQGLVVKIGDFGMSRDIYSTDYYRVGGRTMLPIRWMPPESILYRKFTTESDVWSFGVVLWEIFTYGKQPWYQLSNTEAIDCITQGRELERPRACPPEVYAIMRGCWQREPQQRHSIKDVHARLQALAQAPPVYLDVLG

As a reminder, the IC50 is the midpoint of a concentration-inhibition curve. Regarding `N#Cc1cnn2ccc(N3C[C@@H](F)C[C@@H]3c3cncc(F)c3)nc12` [Compound 1, 5-((2R,4S)-4-fluoro-2-(5-fluoropyridin-3-yl)pyrrolidin-1-yl)pyrazolo[1,5-a]pyrimidine-3-carbonitrile], the concentration for half-maximal inhibition (IC50) in test [1] (setting [4]) was less than 10 nM; in test [2] it was 10 to 100 nM; in test [3] (Homo sapiens), less than 10 nM.
Take `N#Cc1cnn2ccc(N3C[C@@H](F)C[C@@H]3c3cc(F)ccc3F)nc12` [Compound 2]: the 50% inhibitory concentration (IC50) in test [1] (setting [4]), in test [2] and in test [3] (Homo sapiens) was less than 10 nM in each case.
For the compound `N#Cc1cnn2ccc(N3CC(F)(F)C[C@@H]3c3cncc(F)c3)nc12` [Compound 3, (R)-5-(4,4-difluoro-2-(5-fluoropyridin-3-yl)pyrrolidin-1-yl)pyrazolo[1,5-a]pyrimidine-3-carbonitrile], the half-inhibitory concentration (IC50) is 10 to 100 nM in test [1] (setting [4]), 100 to 1000 nM in test [2] and 10 to 100 nM in test [3] (Homo sapiens).
In the case of `N#Cc1cnn2cc(F)c(N3C[C@@H](F)C[C@@H]3c3cncc(F)c3)nc12` [Compound 4, 6-fluoro-5-((2R,4S)-4-fluoro-2-(5-fluoropyridin-3-yl)pyrrolidin-1-yl)pyrazolo[1,5-a]pyrimidine-3-carbonitrile], the IC50 in test [1] (setting [4]), in test [2] and in test [3] (Homo sapiens) was less than 10 nM each time.
With `N#Cc1cnn2ccc(N3C[C@@H](C#N)C[C@@H]3c3cc(F)ccc3F)nc12` [Compound 5, 5-((2R,4S)-4-cyano-2-(2,5-difluorophenyl)pyrrolidin-1-yl)pyrazolo[1,5-a]pyrimidine-3-carbonitrile], the half-inhibitory concentration (IC50) was 10 to 100 nM in test [1] (setting [4]), 100 to 1000 nM in test [2] and 10 to 100 nM in test [3] (Homo sapiens).
As to `N#Cc1cc(F)cc([C@H]2C[C@H](F)CN2c2ccn3ncc(C#N)c3n2)c1` [Compound 6, 5-((2R,4S)-2-(3-cyano-5-fluorophenyl)-4-fluoropyrrolidin-1-yl)pyrazolo[1,5-a]pyrimidine-3-carbonitrile], the IC50 in test [1] (setting [4]), in test [2] and in test [3] (Homo sapiens) was less than 10 nM throughout.
Turning to `COc1ncc(F)cc1[C@H]1C[C@H](F)CN1c1ccn2ncc(C#N)c2n1` [Compound 7, 5-((2R,4S)-4-fluoro-2-(5-fluoro-2-methoxypyridin-3-yl)pyrrolidin-1-yl)pyrazolo[1,5-a]pyrimidine-3-carbonitrile], the 50% inhibitory concentration (IC50) in test [1] (setting [4]), in test [2] and in test [3] (Homo sapiens) was less than 10 nM each time.
As to `Cn1cc(F)cc([C@H]2C[C@H](F)CN2c2ccn3ncc(C#N)c3n2)c1=O` [Compound 8, 5-((2R,4S)-4-fluoro-2-(5-fluoro-1-methyl-2-oxo-1,2-dihydropyridin-3-yl)pyrrolidin-1-yl)pyrazolo[1,5-a]pyrimidine-3-carbonitrile], the IC50 in test [1] (setting [4]) lay in the range of 10 to 100 nM; in test [2], 100 to 1000 nM; in test [3] (Homo sapiens), 10 to 100 nM.
On to `N#Cc1cnn2ccc(N3C[C@@H](F)C[C@@H]3c3cc(F)cc(Cl)c3)nc12` [Compound 9], for which the half-maximal inhibitory concentration (IC50) in test [1] (setting [4]), in test [2] and in test [3] (Homo sapiens) was less than 10 nM in each case.
Consider `N#Cc1cnn2ccc(N3C[C@@H](F)C[C@@H]3c3cc(F)cnc3Cl)nc12` [Compound 10], for which the IC50 in test [1] (setting [4]), in test [2] and in test [3] (Homo sapiens) was less than 10 nM throughout.
As for `N#Cc1cnn2ccc(N3C[C@@H](F)C[C@@H]3c3cc(F)cc(C(N)=O)c3)nc12` [Compound 11], the figures for the concentration for half-maximal inhibition (IC50) in test [1] (setting [4]), in test [2] and in test [3] (Homo sapiens) were less than 10 nM, 10 to 100 nM and less than 10 nM, respectively.
As for `N#Cc1cc(F)cc([C@H]2C[C@H](F)CN2c2nc3c(C#N)cnn3cc2F)c1` [Compound 12], the half-maximal inhibitory concentration (IC50) in test [1] (setting [4]), in test [2] and in test [3] (Homo sapiens) was less than 10 nM each time.
As for `COc1c(F)cc(F)cc1[C@H]1C[C@H](F)CN1c1ccn2ncc(C#N)c2n1` [Compound 13], the IC50 in test [1] (setting [4]), in test [2] and in test [3] (Homo sapiens) was less than 10 nM each time.
For the compound `CC(C)(O)c1cc(F)cc([C@H]2C[C@H](F)CN2c2ccn3ncc(C#N)c3n2)c1` [Compound 14, 5-((2R,4S)-4-fluoro-2-(3-fluoro-5-(2-hydroxypropan-2-yl)phenyl)pyrrolidin-1-yl)pyrazolo[1,5-a]pyrimidine-3-carbonitrile], the IC50 was 10 to 100 nM in test [1] (setting [4]), 100 to 1000 nM in test [2] and 10 to 100 nM in test [3] (Homo sapiens).
Take `N#Cc1cnn2cc(F)c(N3C[C@@H](F)C[C@@H]3c3cc(F)cc(C(N)=O)c3)nc12` [Compound 15]: the IC50 in test [1] (setting [4]) was less than 10 nM; in test [2], 10 to 100 nM; in test [3] (Homo sapiens) it was 10 to 100 nM.
As to `N#Cc1cnn2ccc(N3C[C@@H](F)C[C@@H]3c3cc(F)cc(S(N)(=O)=O)c3)nc12` [Compound 16], the IC50 in test [1] (setting [4]) is less than 10 nM; in test [2], 10 to 100 nM; in test [3] (Homo sapiens) it was 10 to 100 nM.
In the case of `N#Cc1cnn2ccc(N3C[C@@H](F)C[C@@H]3c3cc(F)ccc3OC(F)(F)F)nc12` [Compound 17], the IC50 in test [1] (setting [4]), in test [2] and in test [3] (Homo sapiens) was less than 10 nM in each case.
As to `N#Cc1cnn2ccc(N3C[C@@H](F)C[C@@H]3c3cc(F)cc(C(=O)NCCO)c3)nc12` [Compound 18], the IC50 in test [1] (setting [4]), in test [2] and in test [3] (Homo sapiens) was 10 to 100 nM in each case.
For the compound `N#Cc1cnn2ccc(N3C[C@@H](F)C[C@@H]3c3cc(F)cc(C(=O)NCC4CC4)c3)nc12` [Compound 19], the IC50 in test [1] (setting [4]) was less than 10 nM; in test [2], 10 to 100 nM; in test [3] (Homo sapiens) it was 10 to 100 nM.
Take `CNC(=O)c1cc(F)cc([C@H]2C[C@H](F)CN2c2ccn3ncc(C#N)c3n2)c1` [Compound 20, 3-((2R,4S)-1-(3-cyanopyrazolo[1,5-a]pyrimidin-5-yl)-4-fluoropyrrolidin-2-yl)-5-fluoro-N-methylbenzamide]: the half-maximal inhibitory concentration (IC50) in test [1] (setting [4]), in test [2] and in test [3] (Homo sapiens) was 10 to 100 nM in each case.
For `CN(C)C(=O)c1cc(F)cc([C@H]2C[C@H](F)CN2c2ccn3ncc(C#N)c3n2)c1` [Compound 21], the IC50 in test [1] (setting [4]) lay within 10 to 100 nM; in test [2], 100 to 1000 nM; in test [3] (Homo sapiens), 10 to 100 nM.
For the compound `N#Cc1cnn2ccc(N3C[C@@H](F)C[C@@H]3c3cc(F)ccc3C(N)=O)nc12` [Compound 22, 2-((2R,4S)-1-(3-cyanopyrazolo[1,5-a]pyrimidin-5-yl)-4-fluoropyrrolidin-2-yl)-4-fluorobenzamide], the 50% inhibitory concentration (IC50) in test [1] (setting [4]) lay in the range of 10 to 100 nM; in test [2] it was 100 to 1000 nM; in test [3] (Homo sapiens), 10 to 100 nM.
One may read the GI50 as the concentration giving 50% growth inhibition. As to `C[C@@H](Oc1cc(-c2cnn(C3CCNCC3)c2)cnc1N)c1c(Cl)ccc(F)c1Cl` [Crizotinib, reference compound], halving of growth in test [3] (Homo sapiens, KM12) (GI50) required 87 nM. In other words, the double-digit nanomolar range.
On to `CC(C)NC(=O)[C@H]1CC[C@@H](n2c(NC(=O)c3ccc(F)cc3)nc3ccc(CN4CCC(C(C)(C)O)CC4)cc32)CC1` [TSR-011, reference compound], for which the half-inhibitory concentration (IC50) in test [1] (NTRK wt, known NTRK inhibitors, read-out: NTRK wt Enzyme Assay IC50) was determined as 2.3 nM. Besides, the GI50 in test [2] (NTRK G595R cellular, known NTRK inhibitors) was 12000 nM; in test [3], 32 nM.
